Measurements from patent publication US11331290B2, “Niclosamide for the treatment of cancer metastasis” (Max-Delbrück-Centrum für Molekulare Medizin in der …, priority 2011, dated 2022).

Tests used:
HAB-68mut cells = experiment: Boyden chamber transwell migration assay; assay type: cell-based, human; details: 1 μM, 24 h
Experimental: HCT116, SW620, LS174T, SW480 and DLD-1 cells were used in cell migration and invasion analysis performed with Boyden chamber assay. 400 μL containing 2.5×10^5 cells were seeded into each transwell chamber with filter membranes of 12.0 μm pore size (Millipore, Schwalbach, Germany). For invasion filter membranes were coated with 50 μL Matrigel (diluted 1:3 in RPMI-1640; BD Biosciences) 10 minutes before cells were seeded. Fresh medium (600 μL) were added to the bottom chamber and cells were allowed to attach to the insets for 15 hours. Both chambers were treated with 1 μM niclosamide or the respective amount of DMSO and incubated at 37° C. and 5% CO2 in a humidified incubator for 24 hours. Afterwards insets were removed and cells that had migrated through the membrane to the lower chamber were trypsinized and counted in a Neubauer chamber (LO-Laboroptik, Bad Homburg, Germany). Each well was counted ten times. Each migration or invasion experiment was performed in duplicate. The average number of migrated or invaded cells was determined for at least three independent experiments.
For WNT pathway analysis the following cells were applied: HCT116 cells (heterozygous for gain-of-function-mutated CTNNB1; wt/mut), HAB-68mut cells (deletion mutant of HCT116, expressing only gain-of-function-mutated CTNNB1: −/mut) and HAB-92 wt cells (deletion mutant of HCT116, expressing only wild-type CTNNB1: wt/−). (A) CTNNB1 genotype dependent effect of niclosamide on LEF/TCF transcription factor reporter gene expression. Cells were treated with 1 μM niclosamide for 24 hours. Reporter gene expression was determined by luciferase activity measurement. For each condition and cell line TOPflash expression was normalized to FOPflash expression. (B) CTNNB1 genotype dependent effect of niclosamide on S100A4 expression. Cells were treated with 1 μM niclosamide for 24 hours. S100A4 expression was analyzed by qRT-PCR and immunoblot. (C) CTNNB1 genotype dependent effect of niclosamide on migration rates. Cells were treated with 1 μM niclosamide for 24 hours and cell migration was determined by Boyden chamber assay. Data represents mean±SE of at least three independent experiments. Differences were analyzed by Student's t test (n.s.; not statistically significant). (D) Nuclear localization of CTNNB1 under niclosamide treatment. Nuclear extracts of HCT116 cells treated with the indicated concentrations of niclosamide for 18 hours were analyzed by immunoblot. (E) Effect of niclosamide on CTNNB1/TCF complex. Nuclear extracts of HCT116 cells treated with the indicated concentrations of niclosamide for 18 hours were analyzed by EMSA for the TCF-binding site of the S100A4 promoter. Supershift was performed by addition of a monoclonal anti-CTNNB1 antibody. […]

S100A4 protein = S100A4 protein expression by immunoblot; assay type: cell-based, human; details: for S100A4 protein expression: 1 μM
Experimental: For total protein extraction cells were lysed with RIPA buffer (50 mM Tris-HCl, 150 mM NaCl, 1% Nonidet P-40, supplemented with complete protease inhibitor tablets; Roche) for 30 minutes on ice. For isolation of the nuclear protein fraction, the NE-PER Nuclear and Cytoplasmic Extraction Kit (Pierce) was used according to the manufacturer's instructions. Protein concentration was quantified with Bicinchoninic Acid (BCA) Protein Assay Reagent (Pierce) according to manufacturer's instructions and lysates of equal protein concentration were separated with SDS-PAGE and transferred to Hybond C Extra nitrocellulose membrane (Amersham Biosciences). Membranes were incubated in blocking solution containing 5% nonfat dry milk and 1% bovine serum albumin (BSA) for 1 hour at room temperature. Membranes were incubated overnight at 4° C. with rabbit anti-human-S100A4 antibody (dilution, 1:1500), mouse anti-human-CTNNB1 antibody (dilution, 1:1000), mouse anti-human TUBB1 antibody (dilution, 1:1000), goat anti-human GAPDH antibody (dilution, 1:500) or mouse anti-human PCNA antibody (dilution, 1:1000) followed by incubation for 1 hour at room temperature with HRP-conjugated anti-goat (dilution, 1:10000), anti-rabbit (dilution, 1:10000), anti-mouse IgG (dilution, 1:10000) or anti-mouse IgM (dilution, 1:10000) antibody. Antibody-protein-complexes were visualized with electrochemical-luminescence (ECL) reagent (100 mM Tris-HCl, 0.025% w/v luminol, 0.011% w/v para-hydroxycoumaric acid, 10% v/v dimethylsulfoxide, 0.004% v/v H2O2, pH 8.6) and subsequent exposure to CL-XPosure™ Films (Pierce) for 1 second to 20 minutes. Immunoblotting for GAPDH and PCNA served as protein loading control. Immunoblotting for β-tubulin was used to control that nuclear extracts were free from cytoplasmatic protein. All experiments were performed at least three independent times.
(A) Determination of the cytotoxicity of niclosamide on HCT116 cells. Cells were treated with increasing concentrations of niclosamide for 24 hours and cell viability was measured. (B) Effect of increasing concentrations of niclosamide on S100A4 expression. HCT116 cells were treated with increasing concentrations of niclosamide for 24 hours. S100A4 expression was determined by quantitative reverse-transcription-polymerase chain reaction (qRT-PCR) and immunoblot. (C) Time-dependency of niclosamide effect on S100A4 expression. HCT116 cells were treated with a single dose of 1 μM niclosamide for 24 hours and S100A4 expression was analyzed by qRT-PCR and immunoblot at indicated time points. Black bar indicates the chosen treatment conditions for further experiments. (D) Effect of daily doses of niclosamide on S100A4 expression. HCT116 cells were treated daily with 1 μM niclosamide and S100A4 expression was analyzed by qRT-PCR and immunoblot. Data is given as mean±SD (n>2). Differences in treated groups were compared with the control group by two-sided one-way analysis of variances and Bonferroni post hoc multiple comparison test.
(E) Effect of niclosamide in HCT116-vector and HCT116-S100A4 cells. HCT116-vector and HCT116-S100A4 cells were treated with 1 μM niclosamide for 24 hours and S100A4 expression was analyzed by qRT-PCR and immunoblot. Data is given as mean±SD (n>2). Comparison of niclosamide vs. solvent-treated cells was analyzed with Student's t test.
(A) S100A4 expression under niclosamide treatment. Cells were treated with 1 μM niclosamide for 24 hours. S100A4 expression was analyzed with qRT-PCR and immunoblot. (B) Cell migration under niclosamide treatment. Migration rates of cells treated with 1 μM niclosamide for 24 hours were determined in a Boyden chamber assay values were normalized to solvent-treated SW620 cells. (C) Cell invasion under niclosamide treatment. Cells were seeded onto Matrigel covered transwells and treated with 1 μM niclosamide for 24 hours. Invaded cells in the lower chamber were counted and normalized to solvent-treated SW620 cells. […]

O=C(Nc1ccc([N+](=O)[O-])cc1Cl)c1cc(Cl)ccc1O [niclosamide, 2′,5-dichloro-4′-nitrosalicylanilide]
migration rate, mean difference control vs niclosamide (HAB-68mut cells): 0.91
migration rate, mean (relative to HCT116 control) (HAB-68mut cells; control 1.30): 0.39
S100A4 protein expression (S100A4 protein; DLD-1 cells, 24 h (solvent and niclosamide-treated)): no S100A4 protein was detected
S100A4 protein level (S100A4 protein; HCT116, 0.1 μM to 2.5 μM, 24 h): reduced in a concentration-dependent manner
S100A4 protein level, % of solvent-treated control cells (S100A4 protein; HCT116, 1 μM daily): approximately 50%
S100A4 protein (S100A4 protein; HCT116, three days following discontinuation of niclosamide treatment): clearly reduced
S100A4 protein level (S100A4 protein; HCT116-S100A4, 1 μM, 24 h): no reduction
activity at 1 µM (S100A4 protein; Homo sapiens, HCT-116, HCT116, 1 μM, single dose, 24 hours, read-out: S100A4 protein level, % of control): < 50%
S100A4 protein expression (S100A4 protein; SW620, LS174T and SW480 cells, 24 h): reduced
